According to ChEMBL document CHEMBL1142113, “Limonoids from the seeds of the marine mangrove Xylocarpus granatum” (J Nat Prod, 2007):
pIC50: −log10 of the molar value.

Legend:
A549 = assay: Cytotoxicity against human A549 cells by SRB method; format: cell-based; conditions: for pIC50: Homo sapiens, A549; for Activity: human, a549
P388 = assay: Cytotoxicity against mouse P388 cells by MTT method; format: cell-based; conditions: for pIC50: Mus musculus, P388; for Activity: mouse, p388

Row | Compound | pIC50 (A549) | pIC50 (P388) | Activity (A549) | Activity (P388)
1 | CCC(C)C(=O)O[C@@H]1C([C@@H](OC(C)=O)[C@@]2(O)C(=O)CC[C@]3(C)C2=CC(=O)O[C@H]3c2ccoc2)C(=O)[C@H](C)[C@@H](CC(=O)OC)C1(C)C (stereo partly specified) [GRANAXYLOCARPIN A] | < 5.00 | 5.03 |  | 
2 | C/C=C(\C)C(=O)O[C@H](C1=CC(C)(C)[C@H](CC(=O)OC)[C@@H](C)C1=O)[C@@]1(O)C(=O)CC[C@]2(C)C1=CC(=O)O[C@H]2c1ccoc1 [GRANAXYLOCARPIN B] | < 5.00 | 5.31 |  | 
3 | C/C=C(\C)C(=O)O[C@@H]1[C@@H]2[C@H]3O[C@@]34[C@H](CC[C@@]3(C)[C@H](c5ccoc5)OC(=O)C[C@@]43O)[C@]3(C)[C@@H](CC(=O)OC)[C@]1(C)CO[C@]23O [GRANAXYLOCARPIN C] |  |  | Not Active | Not Active
4 | COC(=O)[C@H](O)[C@H]1[C@]2(C)C[C@]3(OC(C)=O)[C@H]([C@H]2OC(C)=O)[C@@H](OC(C)=O)[C@]2(O)[C@@H]4CC(=O)O[C@@H](c5ccoc5)[C@]4(C)[C@@H](OC(C)=O)C[C@@H]2[C@]13C [GRANAXYLOCARPIN D] |  |  | Not Active | Not Active
5 | COC(=O)[C@H](OC(C)=O)[C@H]1[C@]2(C)C[C@]3(OC(C)=O)[C@H]([C@H]2OC(C)=O)[C@@H](OC(C)=O)[C@]2(O)[C@@H]4CC(=O)O[C@@H](c5ccoc5)[C@]4(C)CC[C@@H]2[C@]13C [GRANAXYLOCARPIN E] |  |  | Not Active | Not Active
6 | COC(=O)C1=CC[C@@]23CC[C@@H]([C@@](C)(/C=C/C=C(\C)C(=O)O)OC2=O)[C@@]3(OC(C)=O)CC1 [PSEUDOLARIC ACID B] |  | 6.13 |  | 
